What was measured:
[1] = temperature to which the insulin can be exposed (insulin infused tissue region); cited from earlier work
[2] = euglycemic glucose clamp study (Glucose Infusion Rate) after insulin pump bolus, with and without heating device; type: in vivo, human; conditions: FIG. 26a; for time to peak action (GIR): insulin bolus 0.15 U/kg by pump
Text: The infusion set includes a tube 44 and a catheter 47, which is inserted into the subcutaneous tissue. […] The controller unit has a switch/button 48 for manual operation and two indicators 49 for “treatment is on” and for battery status. The two components are connected by wires 43.
The controller monitors the electromagnetic emission from the pump. During a bolus mode, the pump emits a well defined series of electromagnetic pulses at constant rate, shown as arrows 42. […] The temperature of the heater is controlled by the controller using a temperature sensor 45 located on the heating element.
The flat heating element used in this example has several layers. The upper layer is a polyethylene layer which seals the element. Below that layer, there is an etched circuit, below which there is a copper layer for heat distribution and mechanical support. Below that layer, there is another sealing polyethylene layer, below which there is an adhesive tape from 3M® which is bio-compatible. The heater has a thickness of less than 0.2 mm and his diameter is 3 cm. Thin electric wires of length of 60 cm with small connectors at both ends connected the heater to the controller unit. The power used for the heating can be 2 Watts. The heating was turned on and off by the controller to stabilize the skin temperature at 39° C. The heat duration was set to 30 minutes, after which the temperature regulation was stopped.
The subject lied down in supine position.
The above described procedure was performed in the same subjects under the same conditions with and without using the heating device. The two graphs show the GIR in glucose milligrams per minutes per subject's kg vs. time. […] There are many attempts to compose such an “artificial pancreas” since the development of continuous glucose monitors. […] Thus, another use of the methods and devices by the present invention is to combine them with a glucose sensor, insulin delivery device and a control algorithm to provide a better accuracy and robustness of a closed loop glucose level control system.

Substance	maximal limiting temperature [1]	time to peak action (GIR) ([2]; with heating (skin 39° C., 30 minutes), same subject)	GIR decrease (indication for insulin clearance out of the circulation and cessation of systemic effects) ([2]; with heating compared to without heating, same subject)	time to peak action (GIR) ([2]; without heating, typical result in one diabetic subject)
Insulin aspart [Novolog]	37 °C	–	–	–
insulin	–	50 min	much faster	75 min

Reference: patent US8622991B2, “Method and device for drug delivery” (Insuline Medical Ltd., priority 2007, dated 2014)
